According to patent EP4678638A1, “NEW E3 UBIQUITIN LIGASE LIGAND, PROTEIN DEGRADATION AGENT AND USE THEREOF” (priority 2023, dated 2024):

Assays:
Type in all cases: cell-based
Conditions in all cases: Table D16
IKZF1 = target: T1, IKZF1 (Homo sapiens, UniProt Q13422+Q96SW2); assay: Western blot degradation of IKZF1 (hPBMC)
T1 construct: evaluate the effects of the compounds of the present disclosure on the expression of target proteins in cells; endogenous in cells; host or cells: hPBMC
Protocol: (§1) Conventional Western blot assay was performed to evaluate the effects of the compounds of the present disclosure on the expression of target proteins in cells.
(§2) (1) Cell Seeding and Protein Harvesting: The selected cells were processed according to the cell seeding procedure and protein harvesting procedure in Table III-2. Table III-2 Cell Seeding and Protein Harvesting Procedures
(§3) (2) To the collected supernatant, 5X SDS sample loading buffer was added, followed by denaturation at 95°C for 5 minutes. The denatured samples were then separated by SDS-PAGE electrophoresis on a polyacrylamide gel. Proteins were transferred to a nitrocellulose membrane (0.45 µm NC membrane), blocked with blocking buffer at room temperature for 1 hour, and subjected to antibody incubation and development procedures according to the antibody manufacturer's instructions (Cell Signaling Technology).
(§4) Half-Maximal Degradation Concentration value (the drug concentration required for degrading proteins by 50%, abbreviated as DC50) reads method: comparing the grayscale values of Western blot bands from drug-treated samples with those from blank DMSO-treated controls, and identifying the drug concentration range at which the grayscale value is half that of the DMSO-treated control bands.
(§5) DC50 values can be calculated using ImageJ software to measure grayscale values of Western blot bands from drug-treated samples. The concentration-response curve is fitted to estimate the drug concentration corresponding to half the grayscale value.
(§6) Target protein remaining (%) refers to the percentage of target protein remaining in hPBMC cells after treatment with protein degrader compounds.
(§7) Calculation method for target protein remaining (%): Use ImageJ software to measure grayscale values of Western blot bands from drug (protein degrader)-treated samples. The grayscale value of drug-treated bands is divided by that of internal control protein bands, and the resulting quotient is normalized to obtain the relative percentage of remaining target protein after protein degrader treatment.
(§8) Target protein degradation rate (%) = 100% - target protein remaining (%).

IKZF3 = target: T2, IKZF3 (Homo sapiens, UniProt Q96SW2+Q9UKT9); assay: Western blot degradation of IKZF3 (hPBMC)
T2 construct: evaluate the effects of the compounds of the present disclosure on the expression of target proteins in cells; endogenous in cells; host or cells: hPBMC
T2 sequence (Q9UKT9 whole entry): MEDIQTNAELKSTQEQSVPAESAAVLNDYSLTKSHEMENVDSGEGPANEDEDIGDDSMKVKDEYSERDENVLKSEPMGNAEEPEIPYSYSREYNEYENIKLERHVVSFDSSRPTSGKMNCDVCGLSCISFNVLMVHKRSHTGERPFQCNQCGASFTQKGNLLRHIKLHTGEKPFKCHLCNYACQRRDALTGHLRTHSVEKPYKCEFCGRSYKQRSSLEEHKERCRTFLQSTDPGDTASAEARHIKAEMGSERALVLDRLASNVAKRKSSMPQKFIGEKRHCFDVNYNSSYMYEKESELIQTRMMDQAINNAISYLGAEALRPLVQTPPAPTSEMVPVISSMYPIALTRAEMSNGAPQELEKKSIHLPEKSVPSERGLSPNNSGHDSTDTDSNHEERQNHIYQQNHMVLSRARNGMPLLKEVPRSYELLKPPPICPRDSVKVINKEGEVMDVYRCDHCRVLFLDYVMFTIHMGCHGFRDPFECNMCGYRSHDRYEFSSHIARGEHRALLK
T2 sequence (Q96SW2 whole entry): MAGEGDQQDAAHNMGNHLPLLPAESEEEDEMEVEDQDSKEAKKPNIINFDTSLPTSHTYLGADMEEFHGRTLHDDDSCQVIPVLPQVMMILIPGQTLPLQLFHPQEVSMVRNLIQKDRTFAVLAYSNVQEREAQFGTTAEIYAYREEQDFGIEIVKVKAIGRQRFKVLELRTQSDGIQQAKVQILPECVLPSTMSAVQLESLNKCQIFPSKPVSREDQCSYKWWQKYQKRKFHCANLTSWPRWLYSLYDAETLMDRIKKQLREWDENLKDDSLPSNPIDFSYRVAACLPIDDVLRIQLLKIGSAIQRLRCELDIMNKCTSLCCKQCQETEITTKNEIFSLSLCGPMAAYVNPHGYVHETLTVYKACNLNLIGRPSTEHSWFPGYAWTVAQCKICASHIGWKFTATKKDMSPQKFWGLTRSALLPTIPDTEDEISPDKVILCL
T2 sequence (Q16531 whole entry partner): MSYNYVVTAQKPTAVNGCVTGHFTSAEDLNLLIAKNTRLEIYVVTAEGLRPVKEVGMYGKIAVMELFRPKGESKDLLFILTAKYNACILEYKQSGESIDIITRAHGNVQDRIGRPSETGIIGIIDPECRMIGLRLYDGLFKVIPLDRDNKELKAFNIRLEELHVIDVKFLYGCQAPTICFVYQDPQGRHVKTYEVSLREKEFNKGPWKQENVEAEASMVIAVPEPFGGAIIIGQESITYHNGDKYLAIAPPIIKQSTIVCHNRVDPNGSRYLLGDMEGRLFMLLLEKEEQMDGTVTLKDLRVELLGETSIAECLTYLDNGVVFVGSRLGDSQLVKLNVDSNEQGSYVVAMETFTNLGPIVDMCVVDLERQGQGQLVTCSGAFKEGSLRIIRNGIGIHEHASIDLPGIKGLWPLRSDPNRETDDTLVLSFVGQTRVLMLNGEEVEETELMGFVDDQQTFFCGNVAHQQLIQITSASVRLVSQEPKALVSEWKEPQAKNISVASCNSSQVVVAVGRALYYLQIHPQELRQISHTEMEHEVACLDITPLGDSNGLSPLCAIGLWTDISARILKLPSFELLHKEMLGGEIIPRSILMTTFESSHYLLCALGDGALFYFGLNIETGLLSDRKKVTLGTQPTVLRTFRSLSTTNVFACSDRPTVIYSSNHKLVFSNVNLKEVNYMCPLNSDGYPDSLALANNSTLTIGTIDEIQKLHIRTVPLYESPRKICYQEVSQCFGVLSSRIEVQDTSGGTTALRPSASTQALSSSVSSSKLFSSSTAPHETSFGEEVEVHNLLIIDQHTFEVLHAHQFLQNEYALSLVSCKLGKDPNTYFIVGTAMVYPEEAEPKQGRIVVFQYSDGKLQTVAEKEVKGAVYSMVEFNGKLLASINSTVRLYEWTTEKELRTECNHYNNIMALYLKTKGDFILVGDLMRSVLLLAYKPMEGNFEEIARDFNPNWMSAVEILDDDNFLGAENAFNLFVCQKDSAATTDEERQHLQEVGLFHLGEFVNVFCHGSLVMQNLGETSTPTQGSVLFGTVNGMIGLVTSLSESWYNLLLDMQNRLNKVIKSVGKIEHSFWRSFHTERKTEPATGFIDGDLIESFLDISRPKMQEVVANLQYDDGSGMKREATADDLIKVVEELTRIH
Protocol: as §1, §2, §3, §4, §5, §6, §7, §8

CK1a = target: T3, CK1a (Homo sapiens, UniProt P48729+Q96SW2); assay: Western blot degradation of CK1a (hPBMC)
T3 construct: evaluate the effects of the compounds of the present disclosure on the expression of target proteins in cells; endogenous in cells; host or cells: hPBMC
Protocol: as §1, §2, §3, §4, §5, §6, §7, §8

IKZF2 = target: T4, IKZF2 (Homo sapiens, UniProt Q96SW2+Q9UKS7); assay: Western blot degradation of IKZF2 (hPBMC)
T4 construct: evaluate the effects of the compounds of the present disclosure on the expression of target proteins in cells; endogenous in cells; host or cells: hPBMC
T4 sequence (Q9UKS7 whole entry): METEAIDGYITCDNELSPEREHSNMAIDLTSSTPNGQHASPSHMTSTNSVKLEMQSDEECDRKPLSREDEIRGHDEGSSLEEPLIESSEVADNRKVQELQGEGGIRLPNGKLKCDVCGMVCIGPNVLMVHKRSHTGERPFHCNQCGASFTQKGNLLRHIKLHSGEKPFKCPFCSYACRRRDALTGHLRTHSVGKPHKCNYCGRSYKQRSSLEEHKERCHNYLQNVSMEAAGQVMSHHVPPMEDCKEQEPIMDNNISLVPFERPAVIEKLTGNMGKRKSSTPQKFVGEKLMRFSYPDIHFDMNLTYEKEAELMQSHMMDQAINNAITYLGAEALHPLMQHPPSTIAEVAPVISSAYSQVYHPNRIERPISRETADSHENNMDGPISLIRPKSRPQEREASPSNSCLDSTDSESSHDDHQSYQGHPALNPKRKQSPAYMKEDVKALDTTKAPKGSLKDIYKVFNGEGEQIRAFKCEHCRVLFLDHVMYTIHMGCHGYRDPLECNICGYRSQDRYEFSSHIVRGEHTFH
T4 sequence (Q96SW2 whole entry): as the sequence (Q96SW2 whole entry) above
T4 sequence (Q16531 whole entry partner): as the sequence (Q16531 whole entry partner) above
Protocol: as §1, §2, §3, §4, §5, §6, §7, §8

GSPT1 = target: T5, GSPT1 (Homo sapiens, UniProt P15170+Q96SW2); assay: Western blot degradation of GSPT1 (hPBMC)
T5 construct: evaluate the effects of the compounds of the present disclosure on the expression of target proteins in cells; endogenous in cells; host or cells: hPBMC
T5 sequence (P15170 whole entry): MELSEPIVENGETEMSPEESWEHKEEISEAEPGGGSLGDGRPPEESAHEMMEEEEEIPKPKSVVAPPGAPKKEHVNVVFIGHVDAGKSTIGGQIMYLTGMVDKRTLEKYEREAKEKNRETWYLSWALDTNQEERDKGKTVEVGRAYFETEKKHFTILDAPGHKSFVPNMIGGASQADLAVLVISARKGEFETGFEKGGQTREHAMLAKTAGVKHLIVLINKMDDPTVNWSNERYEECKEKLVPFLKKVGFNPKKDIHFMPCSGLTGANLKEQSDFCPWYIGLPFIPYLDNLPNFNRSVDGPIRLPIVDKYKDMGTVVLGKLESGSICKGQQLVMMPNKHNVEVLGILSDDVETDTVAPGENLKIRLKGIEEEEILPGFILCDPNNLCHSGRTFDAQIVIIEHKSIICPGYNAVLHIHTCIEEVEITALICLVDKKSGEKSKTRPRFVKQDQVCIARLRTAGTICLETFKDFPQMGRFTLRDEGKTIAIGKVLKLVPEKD
T5 sequence (Q96SW2 whole entry): as the sequence (Q96SW2 whole entry) above
T5 sequence (Q16531 whole entry partner): as the sequence (Q16531 whole entry partner) above
Protocol: as §1, §2, §3, §4, §5, §6, §7, §8

WEE1 = target: T6, WEE1 (Homo sapiens, UniProt P30291+Q96SW2); assay: Western blot degradation of WEE1 (hPBMC)
T6 construct: evaluate the effects of the compounds of the present disclosure on the expression of target proteins in cells; endogenous in cells; host or cells: hPBMC
T6 sequence (P30291 whole entry): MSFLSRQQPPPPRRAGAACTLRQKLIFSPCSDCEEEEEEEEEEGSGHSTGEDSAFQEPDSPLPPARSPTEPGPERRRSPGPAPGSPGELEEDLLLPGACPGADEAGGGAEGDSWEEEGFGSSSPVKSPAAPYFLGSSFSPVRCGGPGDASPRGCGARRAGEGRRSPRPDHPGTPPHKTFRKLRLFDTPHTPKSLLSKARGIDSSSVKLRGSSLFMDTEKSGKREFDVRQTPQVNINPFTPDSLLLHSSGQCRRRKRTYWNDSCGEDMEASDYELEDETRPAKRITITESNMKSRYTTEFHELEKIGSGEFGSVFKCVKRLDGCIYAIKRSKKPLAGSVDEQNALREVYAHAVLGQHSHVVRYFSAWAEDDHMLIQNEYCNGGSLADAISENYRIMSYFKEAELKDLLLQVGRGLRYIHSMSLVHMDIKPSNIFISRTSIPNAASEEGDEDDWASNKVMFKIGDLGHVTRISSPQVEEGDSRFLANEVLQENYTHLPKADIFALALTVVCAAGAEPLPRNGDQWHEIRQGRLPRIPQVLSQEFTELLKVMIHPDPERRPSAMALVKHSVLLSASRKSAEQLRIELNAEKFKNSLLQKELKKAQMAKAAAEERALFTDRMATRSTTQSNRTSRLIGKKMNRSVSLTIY
T6 sequence (Q96SW2 whole entry): as the sequence (Q96SW2 whole entry) above
T6 sequence (Q16531 whole entry partner): as the sequence (Q16531 whole entry partner) above
Protocol: as §1, §2, §3, §4, §5, §6, §7, §8

T1 sequence (Q13422 whole entry): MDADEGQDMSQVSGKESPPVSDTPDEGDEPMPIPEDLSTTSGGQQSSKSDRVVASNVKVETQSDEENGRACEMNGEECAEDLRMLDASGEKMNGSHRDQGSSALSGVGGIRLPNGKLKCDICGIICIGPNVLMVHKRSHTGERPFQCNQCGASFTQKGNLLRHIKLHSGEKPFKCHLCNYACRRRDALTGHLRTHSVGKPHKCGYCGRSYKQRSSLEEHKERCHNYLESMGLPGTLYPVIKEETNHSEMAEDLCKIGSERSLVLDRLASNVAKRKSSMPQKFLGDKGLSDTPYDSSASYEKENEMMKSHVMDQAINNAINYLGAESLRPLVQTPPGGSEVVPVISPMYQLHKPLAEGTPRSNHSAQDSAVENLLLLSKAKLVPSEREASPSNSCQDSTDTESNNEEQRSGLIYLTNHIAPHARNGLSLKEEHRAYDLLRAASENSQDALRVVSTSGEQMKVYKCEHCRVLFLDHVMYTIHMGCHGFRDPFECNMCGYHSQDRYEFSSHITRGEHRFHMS
T1 sequence (Q96SW2 whole entry): as the sequence (Q96SW2 whole entry) above
T1 sequence (Q16531 whole entry partner): as the sequence (Q16531 whole entry partner) above

| Structure (SMILES) | Degradation of substrate protein IKZF1 (substrate protein remaining %) (IKZF1) | Degradation of substrate protein IKZF3 (substrate protein remaining %) (IKZF3) | Degradation of substrate protein CKla (substrate protein remaining %) (CK1a) | Degradation of substrate protein IKZF2 (substrate protein remaining %) (IKZF2) | Degradation of substrate protein GSPT1 (substrate protein remaining %) (GSPT1) | Degradation of substrate protein WEE1 (substrate protein remaining %) (WEE1) |
| --- | --- | --- | --- | --- | --- | --- |
| O=C1CCN(c2cnc(CO)cn2)C(=O)N1 [GT-07634, 1-(5-(Hydroxymethyl)pyrazin-2-yl)dihydropyrimidine-2,4(1H,3H)-dione] | A (A is defined as 0% ≤ substrate protein remaining % ≤ 80%) | A (A is defined as 0% ≤ substrate protein remaining % ≤ 80%) | A (A is defined as 0% ≤ substrate protein remaining % ≤ 80%) | A (A is defined as 0% ≤ substrate protein remaining % ≤ 80%) | B (B is defined as substrate protein remaining % > 80%) | A (A is defined as 0% ≤ substrate protein remaining % ≤ 80%) |
| O=C1CCN(c2cncc(CO)n2)C(=O)N1 [GT-07632, 1-(6-(Hydroxymethyl)pyrazin-2-yl)dihydropyrimidine-2,4(1H,3H)-dione] | A (A is defined as 0% ≤ substrate protein remaining % ≤ 80%) | A (A is defined as 0% ≤ substrate protein remaining % ≤ 80%) | A (A is defined as 0% ≤ substrate protein remaining % ≤ 80%) | A (A is defined as 0% ≤ substrate protein remaining % ≤ 80%) | B (B is defined as substrate protein remaining % > 80%) | A (A is defined as 0% ≤ substrate protein remaining % ≤ 80%) |
| NCc1ccc(N2CCC(=O)NC2=O)nc1 [GT-07012, 1-(5-(Aminomethyl)pyridin-2-yl)dihydropyrimidine-2,4(1H,3H)-dione] | B (B is defined as substrate protein remaining % > 80%) | A (A is defined as 0% ≤ substrate protein remaining % ≤ 80%) | B (B is defined as substrate protein remaining % > 80%) | B (B is defined as substrate protein remaining % > 80%) | A (A is defined as 0% ≤ substrate protein remaining % ≤ 80%) | A (A is defined as 0% ≤ substrate protein remaining % ≤ 80%) |
| O=C1CCN(c2cnc(F)c(CO)c2)C(=O)N1 [GT-07556, 1-(6-Fluoro-5-(hydroxymethyl)pyridin-3-yl)dihydropyrimidine-2,4(1H,3H)-dione] | A (A is defined as 0% ≤ substrate protein remaining % ≤ 80%) | A (A is defined as 0% ≤ substrate protein remaining % ≤ 80%) | A (A is defined as 0% ≤ substrate protein remaining % ≤ 80%) | B (B is defined as substrate protein remaining % > 80%) | B (B is defined as substrate protein remaining % > 80%) | A (A is defined as 0% ≤ substrate protein remaining % ≤ 80%) |
| O=Cc1ccc(NC2CCC(=O)NC2=O)cn1 (stereo not drawn) [GT-07640, 5-((2,6-Dioxopiperidin-3-yl)amino)picolinaldehyde] | A (A is defined as 0% ≤ substrate protein remaining % ≤ 80%) | A (A is defined as 0% ≤ substrate protein remaining % ≤ 80%) | B (B is defined as substrate protein remaining % > 80%) | A (A is defined as 0% ≤ substrate protein remaining % ≤ 80%) | A (A is defined as 0% ≤ substrate protein remaining % ≤ 80%) | A (A is defined as 0% ≤ substrate protein remaining % ≤ 80%) |
